The IC50 is the concentration at which inhibition is half-maximal. For orientation: viability, T/C means the ratio of treated to control.

For five molecules, IC50 and viability, T/C results are on record in PubChem BioAssay AID1845207 (Molecular Pharmacology Branch, DTP, NCI, 2023).

Molecules are shown by their SMILES. Values joined by “and” are separate entries in the source; they are usually repeats but may differ in a detail not shown here. Identical values can stand only once. A value given as a limit tells only on which side of the number the result lay.

For the assay, the system named is NCI-H1876 tumor spheroid viability. Kind of assay: Anticancer human tumor NCI-H1876 cell line growth inhibition.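 As to all read-outs here: spheroids exposed to compounds for seven days before the viability read.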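 As to viability, T/C: percent of DMSO vehicle control viability so 100% = vehicle.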 As to conditions: spheroids with HUVEC and MSC; for viability, T/C: stronger effect = lower value. Summed up:
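Complex tumor spheroids combined malignant cells with endothelial cells and mesenchymal stem cells. DNA-damaging drugs and DNA repair inhibitors were tested alone and in combination, at half-log dilutions down from clinical Cmax (top 10 microM if Cmax unknown), 0.25% DMSO final.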

As to `Cc1sc2c(c1C)C(c1ccc(Cl)cc1)=NC(CC(=O)Nc1ccc(O)cc1)c1nnc(C)n1-2` (centres undefined) + CC[C@@]1(O)C(=O)OCc2c1cc1n(c2=O)Cc2cc3c(CN(C)C)c(O)ccc3nc2-1, the concentration for half-maximal inhibition (IC50) reads like this: (curve of first compound, second compound 0.003 µM) 0.0318 µM; (curve of first compound, second compound 0.00949 µM) less than 0.00949 µM; (curve of first compound, second compound 0.03 µM) less than 0.00949 µM; (curve of first compound, second compound 0.0949 µM) less than 0.00949 µM; (curve of first compound, second compound 0.3 µM) less than 0.00949 µM. For the same molecule, the viability, T/C (second compound 0.003 µM, first compound 0.00949 µM) is 70.7%; the viability, T/C (second compound 0.003 µM, first compound 0.03 µM) is 52.3%; the viability, T/C (second compound 0.003 µM, first compound 0.0949 µM) was 25.6%; the viability, T/C (second compound 0.003 µM, first compound 0.3 µM) is 15.8%; the viability, T/C (second compound 0.003 µM, first compound 0.949 µM) is 8.93%; the viability, T/C (second compound 0.003 µM, first compound 3 µM) was 5.64%. The viability, T/C was 30.6% (second compound 0.00949 µM, first compound 0.00949 µM); 46.8% (second compound 0.00949 µM, first compound 0.03 µM); 16.6% (second compound 0.00949 µM, first compound 0.0949 µM); 12.2% (second compound 0.00949 µM, first compound 0.3 µM); 7.36% (second compound 0.00949 µM, first compound 0.949 µM); 5.57% (second compound 0.00949 µM, first compound 3 µM). Besides, the viability, T/C is 12.2% (second compound 0.03 µM, first compound 0.00949 µM); 30% (second compound 0.03 µM, first compound 0.03 µM); 12.2% (second compound 0.03 µM, first compound 0.0949 µM); 10.8% (second compound 0.03 µM, first compound 0.3 µM); 5.27% (second compound 0.03 µM, first compound 0.949 µM); 4.32% (second compound 0.03 µM, first compound 3 µM). Besides, the viability, T/C (second compound 0.0949 µM, first compound 0.00949 µM) is 7.77%; the viability, T/C (second compound 0.0949 µM, first compound 0.03 µM) is 8.11%; the viability, T/C (second compound 0.0949 µM, first compound 0.0949 µM) was 8.71%; the viability, T/C (second compound 0.0949 µM, first compound 0.3 µM) was 7.87%; the viability, T/C (second compound 0.0949 µM, first compound 0.949 µM) was 5.5%; the viability, T/C (second compound 0.0949 µM, first compound 3 µM) is 4%. The viability, T/C reads like this: (second compound 0.3 µM, first compound 0.00949 µM) 3.46%; (second compound 0.3 µM, first compound 0.03 µM) 3.69%; (second compound 0.3 µM, first compound 0.0949 µM) 3.67%; (second compound 0.3 µM, first compound 0.3 µM) 3.02%; (second compound 0.3 µM, first compound 0.949 µM) 2.65%; (second compound 0.3 µM, first compound 3 µM) 1.56%.
As to `Cc1cc(C)c(CNC(=O)c2cc(-c3ccc(CN4CCOCC4)cc3)cc3c2cnn3C2CCCC2)c(=O)[nH]1` + Cn1nnc2c(C(N)=O)ncn2c1=O, the IC50 (curve of first compound, second compound 1 µM) amounted to 0.713 µM; the half-inhibitory concentration (IC50) (curve of first compound, second compound 3.16 µM) was 0.873 µM; the IC50 (curve of first compound, second compound 10 µM) was determined as 0.546 µM; the IC50 (curve of first compound, second compound 31.6 µM) is 0.75 µM; the concentration for half-maximal inhibition (IC50) (curve of first compound, second compound 100 µM) came out at 0.201 µM. The viability, T/C was 93.8% (second compound 1 µM, first compound 0.0316 µM); 79.2% (second compound 1 µM, first compound 0.1 µM); 60.2% (second compound 1 µM, first compound 0.316 µM); 44.8% (second compound 1 µM, first compound 1 µM); 29.3% (second compound 1 µM, first compound 3.16 µM); 9.14% (second compound 1 µM, first compound 10 µM). The viability, T/C is 85.7% (second compound 3.16 µM, first compound 0.0316 µM); 78.6% (second compound 3.16 µM, first compound 0.1 µM); 64% (second compound 3.16 µM, first compound 0.316 µM); 49.8% (second compound 3.16 µM, first compound 1 µM); 27.2% (second compound 3.16 µM, first compound 3.16 µM); 12.2% (second compound 3.16 µM, first compound 10 µM). Also, the viability, T/C was 88.7% (second compound 10 µM, first compound 0.0316 µM); 58.5% (second compound 10 µM, first compound 0.1 µM); 61.8% (second compound 10 µM, first compound 0.316 µM); 46.8% (second compound 10 µM, first compound 1 µM); 26.6% (second compound 10 µM, first compound 3.16 µM); 13.3% (second compound 10 µM, first compound 10 µM). Moreover, the viability, T/C (second compound 31.6 µM, first compound 0.0316 µM) was 53.8%; the viability, T/C (second compound 31.6 µM, first compound 0.1 µM) was 74.6%; the viability, T/C (second compound 31.6 µM, first compound 0.316 µM) is 59.3%; the viability, T/C (second compound 31.6 µM, first compound 1 µM) is 44.7%; the viability, T/C (second compound 31.6 µM, first compound 3.16 µM) was 26.3%; the viability, T/C (second compound 31.6 µM, first compound 10 µM) was 10.7%. Besides, the viability, T/C was 58.8% (second compound 100 µM, first compound 0.0316 µM); 52.3% (second compound 100 µM, first compound 0.1 µM); 47% (second compound 100 µM, first compound 0.316 µM); 39.8% (second compound 100 µM, first compound 1 µM); 25.2% (second compound 100 µM, first compound 3.16 µM); 8.6% (second compound 100 µM, first compound 10 µM).
In the case of `COc1cc2c(cc1O)CCNC21CSC2c3c(OC(C)=O)c(C)c4c(c3C(COC1=O)N1C(O)C3Cc5cc(C)c(OC)c(O)c5C(C21)N3C)OCO4` (centres undefined), the viability, T/C runs as follows: (compound 30 pM) 102% [middle of 10 runs]; (compound 94.9 pM) 90.2% [middle of 10 runs]; (compound 0.000949 µM) 2.68% [middle of 10 runs]; (compound 0.003 µM) 0.78% [middle of 10 runs]. For the same molecule, the 50% inhibitory concentration (IC50) (compound alone, run of 12/16/2019) is 0.197 nM [middle of 10 runs].
`Cc1sc2c(c1C)C(c1ccc(Cl)cc1)=NC(CC(=O)Nc1ccc(O)cc1)c1nnc(C)n1-2` (centres undefined): the viability, T/C by setting is: (compound 0.00949 µM) 94.3% and 86.8% and 105%; (compound 0.03 µM) 71.5% and 70.6% and 109%; (compound 0.0949 µM) 51.4% and 53% and 109%; (compound 0.3 µM) 33.7% and 35.1% and 81.6%; (compound 0.949 µM) 17% and 16% and 39.7%; (compound 3 µM) 12.9% and 9.5% and 12.3%. In addition, the concentration for half-maximal inhibition (IC50) (curve of compound) is 0.0988 µM and 0.112 µM and 0.709 µM.
In the case of `O=C(c1cc(Cc2n[nH]c(=O)c3ccccc23)ccc1F)N1CCN(C(=O)C2CC2)CC1`, the viability, T/C by setting is: (compound 0.0949 µM) 87% and 103% and 107%; (compound 0.3 µM) 76% and 89.7% and 106%; (compound 0.949 µM) 84.4% and 76.2% and 100%; (compound 3 µM) 72.1% and 55.2% and 76.5%; (compound 9.49 µM) 64% and 33.9% and 18.2%; (compound 30 µM) 66.7% and 19.1% and 12.6%. Also, under “curve of compound”, the concentration for half-maximal inhibition (IC50) is > 30 µM and 3.96 µM and 5.07 µM.
